Results published in patent publication US20260232815A1, “COPOLYMER-DRUG CONJUGATE FOR TREATMENT OF TUMOURS” (Danmarks Tekniske Universitet, priority 2023, published 2026).

System: Murine colon carcinoma CT26
Test: Antitumour efficacy after intratumoral treatment of CT26 tumours
Type: in vivo, Balb/cJRj mice
Experimental: Healthy Balb/cJRj mice were injected with 100 μL of Murine colon carcinoma CT26 cancer cells (3×105) in RPMI media subcutaneously on the right flank. Mice bearing tumors with volumes between 50 and 200 mm^3 were randomized and rearranged into new cages by blocking for initial tumor volume, and each cage received one of the four treatments described in Table 2 administered intratumorally (50 μL). A total of 3 injections, separated by 7 days each, were made for each treatment.
83 days after the first tumor inoculation, the surviving mice were re-challenged by a second inoculation of CT26 cancers cells (same dose) on the left flank of the mice along with a control group getting their first inoculation. The mice were monitored for weight and their tumors were measured using an electronic caliper twice a week, and fluorescence imaging was performed at regular intervals for all formulations containing Cy7 moieties. […] Humane endpoints included general signs of misthriving mice, significant weight loss (15% of initial weight or 10% overnight weight loss), or presence of tumor wounds larger than 8 mm.

## CCOCc1nc2c(N)nc3ccccc3c2n1CCCN [TLR7/8a, 4-Amino-2-(ethoxymethyl)-1H-imidazo[4,5-c]quinoline-1-propanamine]
Intratumoral treatment
  antitumour activity / improvement versus control: potential minor improvement in tumour treatment compared to the control
mouse, in vivo
  averaged slope coefficient for the tumour growth plots (tumour growth rate): positive
Six mice per group, 3 intratumoral injections 7 days apart
  mice recovered from the tumour: two out of six mice recovered
